Results: US10023590B2, “Substituted pyridine compounds having herbicidal activity” (BASF SE, priority 2014, dated 2018)

How the values were obtained:
Assay type in all cases: in vivo
[1] = test system: Zea mays; test: Greenhouse post-emergence herbicidal activity on crop ZEAMX (corn, maize); design: key: 0 = no damage/normal growth, 100 = no emergence or complete destruction; details: ZEAMX (corn, crop), scale 0 to 100
Excerpt: (§1) The culture containers used were plastic flowerpots containing loamy sand with approximately 3.0% of humus as the substrate. The seeds of the test plants were sown separately for each species.
(§2) For the post-emergence treatment, the test plants were first grown to a height of 3 to 15 cm, depending on the plant habit, and only then treated with the active ingredients which had been suspended or emulsified in water. For this purpose, the test plants were either sown directly and grown in the same containers, or they were first grown separately as seedlings and transplanted into the test containers a few days prior to treatment.
(§3) Depending on the species, the plants were kept at 10-25° C. or 20-35° C., respectively.
(§4) The test period extended over 2 to 4 weeks. During this time, the plants were tended, and their response to the individual treatments was evaluated.
(§5) Evaluation was carried out using a scale from 0 to 100. 100 means no emergence of the plants, or complete destruction of at least the aerial moieties, and 0 means no damage, or normal course of growth. A good herbicidal activity is given at values of at least 70 and a very good herbicidal activity is given at values of at least 85.

[2] = test system: Chenopodium album; test: Greenhouse post-emergence herbicidal activity, CHEAL; details: scale 0 to 100; for pest or weed control at 125 g/ha: 0.125 kg/ha; for pest or weed control at 250 g/ha: 0.25 kg/ha; for pest or weed control at 31 g/ha: 0.031 kg/ha; for pest or weed control at 63 g/ha: 0.063 kg/ha
Excerpt: as §1, §2, §3, §4, §5

[3] = test system: Echinocloa crus-galli; test: Greenhouse post-emergence herbicidal activity, ECHCG; details: Echinochloa crus-galli, ECHCG, scale 0 to 100; for pest or weed control at 125 g/ha: 0.125 kg/ha; for pest or weed control at 250 g/ha: 0.25 kg/ha; for pest or weed control at 31 g/ha: 0.031 kg/ha; for pest or weed control at 63 g/ha: 0.063 kg/ha
Excerpt: as §1, §2, §3, §4, §5

[4] = test system: Amaranthus retroflexus; test: Greenhouse post-emergence herbicidal activity, AMARE; details: AMARE, scale 0 to 100; for pest or weed control at 125 g/ha: 0.125 kg/ha; for pest or weed control at 250 g/ha: 0.25 kg/ha; for pest or weed control at 31 g/ha: 0.031 kg/ha; for pest or weed control at 63 g/ha: 0.063 kg/ha
Excerpt: as §1, §2, §3, §4, §5

[5] = test system: Oryza sativa; test: Greenhouse post-emergence herbicidal activity on crop ORYSA (rice); details: ORYSA (rice, crop), scale 0 to 100
Excerpt: as §1, §2, §3, §4, §5

Structure (SMILES) | Herbicidal activity ([1]; 0.125 kg/ha) | pest or weed control at 125 g/ha [2] | pest or weed control at 250 g/ha [2] | pest or weed control at 125 g/ha [3] | pest or weed control at 250 g/ha [3] | pest or weed control at 125 g/ha [4] | pest or weed control at 250 g/ha [4] | Herbicidal activity ([5]; 0.125 kg/ha) | Herbicidal activity ([5]; 0.25 kg/ha) | Herbicidal activity ([1]; 0.031 kg/ha) | Herbicidal activity ([1]; 0.063 kg/ha) | pest or weed control at 31 g/ha [2] | pest or weed control at 63 g/ha [2] | pest or weed control at 31 g/ha [3] | pest or weed control at 63 g/ha [3] | pest or weed control at 31 g/ha [4] | pest or weed control at 63 g/ha [4] | Herbicidal activity ([5]; 0.031 kg/ha) | Herbicidal activity ([5]; 0.063 kg/ha) | Herbicidal activity ([1]; 0.25 kg/ha)
CS(=O)(=O)Nc1c(Cl)ccc(C2=C(O)c3ncccc3CS2(=O)=O)c1Cl [I-1, N-[2,6-dichloro-3-(8-hydroxy-6,6-dioxo-5H-thiopyrano[4,3-b]pyridin-7-yl)phenyl]methanesulfonamide] | 0 | 80% | 95% | 70% | 80% | 75% | 80% | 0 | 0 |  |  |  |  |  |  |  |  |  |  | 
CN(c1ccc(Cl)c(C2=C(O)c3ncccc3CS2(=O)=O)c1Cl)S(C)(=O)=O [I-4, N-[2,4-dichloro-3-(8-hydroxy-6,6-dioxo-5H-thiopyrano[4,3-b]pyridin-7-yl)phenyl]-N-methyl-methanesulfonamide] | 55 | 100% | 100% | 98% | 100% | 98% | 98% | 50 |  | 0 | 20 | 85% | 95% | 98% | 90% | 90% | 90% | 25 | 35 | 
CN(c1cccc(C2=C(O)c3ncccc3CS2(=O)=O)c1Cl)S(C)(=O)=O [I-15, N-[2-chloro-3-(8-hydroxy-6,6-dioxo-5H-thiopyrano[4,3-b]pyridin-7-yl)phenyl]-N-methyl-methanesulfonamide] | 35 | 98% |  | 98% |  | 90% |  | 20 |  |  |  | 90% | 98% | 85% | 90% | 75% | 85% | 0 | 0 | 
CCS(=O)(=O)N(C)c1c(Cl)ccc(C2=C(O)c3ncccc3CS2(=O)=O)c1Cl [I-18, N-[2,6-dichloro-3-(8-hydroxy-6,6-dioxo-5H-thiopyrano[4,3-b]pyridin-7-yl)phenyl]-N-methyl-ethanesulfonamide] | 25 | 100% | 100% | 100% | 100% | 100% | 100% |  |  | 0 | 25 | 100% | 100% | 98% | 100% | 100% | 100% | 30 |  | 35
CN(c1c(Cl)ccc(C2=C(O)c3ncccc3CS2(=O)=O)c1Cl)S(=O)(=O)CC1CC1 [I-20, 1-cyclopropyl-N-[2,6-dichloro-3-(8-hydroxy-6,6-dioxo-5H-thiopyrano[4,3-b]pyridin-7-yl)phenyl]-N-methyl-methanesulfonamide] | 0 | 100% |  | 100% |  | 100% |  |  |  | 0 | 0 | 100% | 100% | 100% | 100% | 90% | 90% |  |  | 
